Test results reported in patent US20080051418A1, “Arylalkanoic Acid Derivative” (priority 2004, published 2008).

Key:
PPARγ-RXRα heterodimer = molecular target: T1, PPARγ-RXRα heterodimer (Homo sapiens, UniProt P37231); experiment: PPARγ-RXRα heterodimer ligand activity (luciferase reporter); format: cell-based; conditions: PPARγ:RXRα:4ERPP/CHO-K1 cells, 18-24 hr, concentration showing 50% of the maximum induction rate
T1 construct: expressed in transfected cells; host or cells: CHO-K1
T1 sequence (P37231 1-505): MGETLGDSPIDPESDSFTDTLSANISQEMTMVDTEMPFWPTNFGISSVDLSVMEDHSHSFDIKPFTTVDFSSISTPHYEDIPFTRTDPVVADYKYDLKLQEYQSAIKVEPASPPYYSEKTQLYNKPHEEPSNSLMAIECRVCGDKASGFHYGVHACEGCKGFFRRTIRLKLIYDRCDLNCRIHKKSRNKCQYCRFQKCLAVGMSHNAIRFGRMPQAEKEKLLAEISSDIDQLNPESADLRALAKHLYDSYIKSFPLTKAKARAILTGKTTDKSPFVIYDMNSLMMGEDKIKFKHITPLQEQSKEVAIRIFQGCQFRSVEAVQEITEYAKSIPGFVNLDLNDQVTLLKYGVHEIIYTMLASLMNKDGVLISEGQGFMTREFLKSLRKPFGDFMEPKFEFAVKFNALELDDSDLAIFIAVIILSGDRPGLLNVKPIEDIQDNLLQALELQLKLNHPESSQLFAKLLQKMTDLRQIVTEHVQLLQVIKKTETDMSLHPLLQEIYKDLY
T1 sequence (P19793 1-462 partner): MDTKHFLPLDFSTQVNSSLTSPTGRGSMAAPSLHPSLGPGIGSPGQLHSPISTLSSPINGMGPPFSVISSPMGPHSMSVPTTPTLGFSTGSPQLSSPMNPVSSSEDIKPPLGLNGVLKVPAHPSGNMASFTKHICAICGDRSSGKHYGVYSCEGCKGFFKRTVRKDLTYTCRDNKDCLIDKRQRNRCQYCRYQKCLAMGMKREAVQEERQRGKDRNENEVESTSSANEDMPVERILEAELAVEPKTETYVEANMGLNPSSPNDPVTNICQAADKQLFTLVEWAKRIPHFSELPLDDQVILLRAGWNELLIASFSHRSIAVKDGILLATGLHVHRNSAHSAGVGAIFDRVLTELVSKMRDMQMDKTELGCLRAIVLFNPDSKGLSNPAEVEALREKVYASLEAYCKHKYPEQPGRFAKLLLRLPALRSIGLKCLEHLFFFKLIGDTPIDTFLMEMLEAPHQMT
Method: The PPARγ:RXRα:4ERPP/CHO-K1 cells described in WO03/099793 were cultured in a Ham F12 medium [manufactured by Life Technologies, Inc., US] containing 10% calf fetal serum [manufactured by Life Technologies, Inc., US], sown in a 96-well white plate [manufactured by Corning Coster Corporation, US] at 2×10^4 cells/well, and incubated overnight in a carbon dioxide gas incubator at 37° C.
Then, the medium was removed from the 96 well white plate, 80 μl of Ham F12 medium containing 0.1% fatty acid-free bovine serum albumin (BSA) and a test compound (20 μl) were added, and the cells were incubated for 18-24 hr in a carbon dioxide gas incubator at 37° C. The medium was removed, 40 μl of PicaGene 7.5 (manufactured by Wako Pure Chemical Industries, Ltd.) diluted 2-fold with HBSS (HANKS' BALANCED SALT SOLUTION) [manufactured by BIO WHITTAKER, US] was added. After stirring, the luciferase activity was determined using the 1420 ARVO Multilabel Counter [manufactured by PerkinElmer, US].
(§1) The induction rate was calculated from the luciferase activity of each test compound based on the luciferase activity of the test compound non-administration group as 1. The test compound concentration and the induction rate were analyzed by PRISM [manufactured by GraphPad Software, Inc., US] to calculate EC50 value (compound concentration showing 50% of the maximum value of induction rate) of the test compound.

PPARδ-RXRα heterodimer = molecular target: T2, PPARδ-RXRα heterodimer (Homo sapiens, UniProt Q03181); experiment: PPARδ-RXRα heterodimer ligand activity (luciferase reporter); format: cell-based; conditions: transformant of Reference Example 9a of WO03/099793, 36-48 hr, concentration showing 50% of the maximum induction rate
T2 construct: expressed in transfected cells
T2 sequence (Q03181 1-441): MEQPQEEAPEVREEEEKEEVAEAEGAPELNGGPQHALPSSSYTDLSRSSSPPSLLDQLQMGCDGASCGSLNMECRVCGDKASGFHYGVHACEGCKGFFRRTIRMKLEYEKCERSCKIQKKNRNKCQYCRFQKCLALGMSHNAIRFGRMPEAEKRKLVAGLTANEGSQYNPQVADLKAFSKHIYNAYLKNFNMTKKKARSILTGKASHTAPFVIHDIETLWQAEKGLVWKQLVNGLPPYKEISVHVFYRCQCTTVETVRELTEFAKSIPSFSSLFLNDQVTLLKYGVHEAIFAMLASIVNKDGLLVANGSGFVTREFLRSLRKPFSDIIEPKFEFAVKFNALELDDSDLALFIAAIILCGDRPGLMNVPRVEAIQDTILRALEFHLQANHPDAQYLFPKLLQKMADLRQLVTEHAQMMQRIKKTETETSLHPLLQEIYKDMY
T2 sequence (P19793 1-462 partner): T1 sequence (P19793 1-462 partner)
Method: The transformant described in Reference Example 9a of WO03/099793 was suspended in a DMEM medium [manufactured by Life technologies, Inc., US] containing 0.1% fatty acid-free bovine serum albumin (BSA) (manufactured by Wako Pure Chemical Industries, Ltd.), and inoculated to each well of a 96 well white plate [manufactured by Corning Coster Corporation, US] by 80 μl to 1×10^4 cells/well. Then, the test compound (20 μl) was added, and cultured under the conditions of 37° C., 5% CO2 for 36-48 hr. The medium was removed from the 96 well white plate, 40 μl of PicaGene LT 7.5 (manufactured by Wako Pure Chemical Industries, Ltd.) diluted 2-fold with HBSS (HANKS' BALANCED SALT SOLUTION) [manufactured by BIO WHITTAKER, US] was added and, after stirring, the luciferase activity was determined using the 1420 ARVO Multilabel Counter [manufactured by PerkinElmer, US].
as §1

EC50 (PPARγ-RXRα heterodimer) [nM] | EC50 (PPARδ-RXRα heterodimer) [nM] | melting point [°C] | Compound
0.75 | 9.2 | – | CC(C)Oc1ccc(CCCOc2nn(Cc3ccccc3)cc2CC(=O)O)c(Oc2ncc(C(F)(F)F)cc2Cl)c1 [Example 118, {3-[3-(2-{[3-chloro-5-(trifluoromethyl)pyridin-2-yl]oxy}-4-isopropoxyphenyl)propoxy]-1-benzyl-1H-pyrazol-4-yl}acetic acid]
– | 39 | 92 to 93 | COc1cccc(CC(=O)O)c1OCCCc1ccc(OC(C)C)cc1Oc1ncc(Cl)cc1Cl [Example 119, [2-(3-{2-[(3,5-dichloropyridin-2-yl)oxy]-4-isopropoxyphenyl}propoxy)-3-methoxyphenyl]acetic acid]
3.3 | 23 | – | CCn1cc(CC(=O)O)c(OCCCc2ccc(OC(C)C)cc2Oc2ncc(Cl)cc2Cl)n1 [Example 120, [3-(3-{2-[(3,5-dichloropyridin-2-yl)oxy]-4-isopropoxyphenyl}propoxy)-1-ethyl-1H-pyrazol-4-yl]acetic acid]
3.3 | 7.6 | 84 to 85 | CC(C)Oc1ccc(CCCOc2ncccc2CC(=O)O)c(Oc2ncc(Cl)cc2Cl)c1 [Example 121, [2-(3-{2-[(3,5-dichloropyridin-2-yl)oxy]-4-isopropoxyphenyl}propoxy)pyridin-3-yl]acetic acid]
11 | 88 | – | CC(C)Oc1ccc(CCCOc2nn(C)cc2CC(=O)O)c(Oc2ncc(Cl)cc2Cl)c1 [Example 132, [3-(3-{2-[(3,5-dichloropyridin-2-yl)oxy]-4-isopropoxyphenyl}propoxy)-1-methyl-1H-pyrazol-4-yl]acetic acid]
1.2 | 4 | – | CC(C)Oc1ccc(CCCOc2cc(CCC(=O)O)n(-c3ccccc3)n2)c(Oc2ncc(Cl)cc2Cl)c1 [Example 138, 3-[3-(3-{2-[(3,5-dichloropyridin-2-yl)oxy]-4-isopropoxyphenyl}propoxy)-1-phenyl-1H-pyrazol-5-yl]propanoic acid]
9 | 17 | 88 to 89 | CC(C)Oc1ccc(CCCOc2cc(CCC(=O)O)n(C)n2)c(Oc2ncc(C(F)(F)F)cc2Cl)c1 [Example 139, 3-{3-[3-(2-{[3-chloro-5-(trifluoromethyl)pyridin-2-yl]oxy}-4-isopropoxyphenyl)propoxy]-1-methyl-1H-pyrazol-5-yl}propanoic acid]
7 | 14 | 127.5 to 128.5 | CC(C)Oc1ccc(CCCOc2cc(CCC(=O)O)n(C(C)C)n2)c(Oc2ncc(C(F)(F)F)cc2Cl)c1 [Example 142, 3-{3-[3-(2-{[3-chloro-5-(trifluoromethyl)pyridin-2-yl]oxy}-4-isopropoxyphenyl)propoxy]-1-isopropyl-1H-pyrazol-5-yl}propanoic acid]

More lines, now with the values behind:

Compound | EC50 (PPARγ-RXRα heterodimer) [nM] | EC50 (PPARδ-RXRα heterodimer) [nM] | melting point [°C]
COc1cccc(CC(=O)O)c1OCCCc1cc(OC(C)C)nn1Cc1ccc(C(F)(F)F)cc1Cl [Example 66, [2-(3-{1-[2-chloro-4-(trifluoromethyl)benzyl]-3-isopropoxy-1H-pyrazol-5-yl}propoxy)-3-methoxyphenyl]acetic acid] | 1.2 | 2.8 | 98 to 99
COc1cccc(CC(=O)O)c1OCCCc1cc(OC(C)C)nn1Cc1ccc(Cl)cc1C [Example 68, (2-{3-[1-(4-chloro-2-methylbenzyl)-3-isopropoxy-1H-pyrazol-5-yl]propoxy}-3-methoxyphenyl)acetic acid] | 6 | 74 | 108 to 109
COc1cccc(CC(=O)O)c1OCCCc1cc(OC(C)C)nn1Cc1ccc(Cl)cc1OC(C)C [Example 70, (2-{3-[1-(4-chloro-2-isopropoxybenzyl)-3-isopropoxy-1H-pyrazol-5-yl]propoxy}-3-methoxyphenyl)acetic acid] | – | 60 | –
COc1cccc(CC(=O)O)c1OCCCc1ccc(Oc2ccc(C(F)(F)F)cn2)cc1OC(C)C [Example 101, {2-[3-(2-isopropoxy-4-{[5-(trifluoromethyl)pyridin-2-yl]oxy}phenyl)propoxy]-3-methoxyphenyl}acetic acid] | – | 44 | –
CCCOc1cc(Oc2ccc(C(F)(F)F)cn2)ccc1CCCOc1c(CC(=O)O)cccc1OC [Example 102, {2-[3-(2-propoxy-4-{[5-(trifluoromethyl)pyridin-2-yl]oxy}phenyl)propoxy]-3-methoxyphenyl}acetic acid] | – | 54 | –
COCOc1ccc(CCCOc2nn(Cc3ccccc3)cc2CC(=O)O)c(Oc2ncc(C(F)(F)F)cc2Cl)c1 [Example 112, (3-{3-[2-{[3-chloro-5-(trifluoromethyl)pyridin-2-yl]oxy}-4-(methoxymethoxy)phenyl]propoxy}-1-benzyl-1H-pyrazol-4-yl)acetic acid] | 0.57 | 57 | 108 to 109
CCCOc1ccc(CCCOc2nn(C)cc2CC(=O)O)c(Oc2ncc(C(F)(F)F)cc2Cl)c1 [Example 113, {3-[3-(2-{[3-chloro-5-(trifluoromethyl)pyridin-2-yl]oxy}-4-propoxyphenyl)propoxy]-1-methyl-1H-pyrazol-4-yl}acetic acid] | – | 44 | –
CCCOc1ccc(CCCOc2nn(Cc3ccccc3)cc2CC(=O)O)c(Oc2ncc(C(F)(F)F)cc2Cl)c1 [Example 114, {3-[3-(2-{[3-chloro-5-(trifluoromethyl)pyridin-2-yl]oxy}-4-propoxyphenyl)propoxy]-1-benzyl-1H-pyrazol-4-yl}acetic acid] | – | 25 | –
COc1cccc(CC(=O)O)c1OCCCc1ccc(OC(C)C)cc1Oc1ncc(C(F)(F)F)cc1Cl [Example 115, {2-[3-(2-{[3-chloro-5-(trifluoromethyl)pyridin-2-yl]oxy}-4-isopropoxyphenyl)propoxy]-3-methoxyphenyl}acetic acid] | – | 2.5 | –
CC(C)Oc1ccc(CCCOc2nn(C)cc2CC(=O)O)c(Oc2ncc(C(F)(F)F)cc2Cl)c1 [Example 116, {3-[3-(2-{[3-chloro-5-(trifluoromethyl)pyridin-2-yl]oxy}-4-isopropoxyphenyl)propoxy]-1-methyl-1H-pyrazol-4-yl}acetic acid] | 1.6 | 9.3 | –
